From patent publication US5804593A, “α-Amino sulfonyl hydroxamic acids as matrix metalloproteinase inhibitors” (Pharmacia & Upjohn Company, priority 1997, dated 1998)

target: Gelatinase; test: particle concentration fluorescence assay of MMP inhibition in vitro; format: biochemical; details: fluorescein/biotin-labelled substrate, avidin-coated particles, room temperature, pH 7.5
Experimental: Inhibitory activity is evaluated in one or more of the MMP enzymes (stromelysin, gelatinase, and collagenase) in vitro using particle concentration fluorescence assay. An inhibitor binds to MMP enzymes which prevents the degradation of a substrate by stromelysin, gelatinase, or collagenase. The substrate has attached to it a fluorescein and a biotin moiety. The intact substrate then binds to an avidin-coated particle via the biotin moiety. Once the particle is washed and dried, a fluorescent signal is generated since the fluorescent group is attached to the particle. Without an inhibitor present, the substrate is degraded by MMP enzymes and the fluorescein group is removed, therefore, no fluorescent signal can be detected. Testing compounds are dissolved in DMSO to the desired concentration, then the solutions are diluted to 1:5 with MMP buffer (50 mM Tris-HCl, pH 7.5; 150 mM NaCl; 0.02% NaN3). Serial two-fold dilutions of each compound are prepared. A concentrated, activated enzyme solution is transferred into each plate of the testing compounds, and the mixture is incubated at room temperature for 15 minutes. Thawed MMP substrate is then added into all plates, and the plates are incubated in the dark for 1-3 hours at room temperature. At this point, the substrate mixture is mixed with 0.1% avidin-coated polystyrene particles. After 15 minutes, the fluorescence values are measured following filtration and washing of the beads. Ki values are then calculated.

Row | Ki | Compound
1 | 9.8 nM | CCC(C)(C)C(NS(=O)(=O)c1ccc(OC)cc1)C(=O)NO (stereo not drawn) [Example 10, N-Hydroxy-2-[(4-methoxybenzenesulfonyl)-amino]-3,3-dimethyl pentanamide]
2 | 79 nM | O=C(NO)[C@@H](Cc1c[nH]c2ccccc12)NS(=O)(=O)c1ccc(F)cc1 [Example 3, N-hydroxy-2(R)-[(4-fluorobenzenesulfonyl)-amino]-3-(3-indolyl)-propanamide]
3 | 7.23 nM | COc1ccc(S(=O)(=O)N[C@H](Cc2ccccc2)C(=O)NO)cc1 [Example 4, N-hydroxy-2(R)-[(4-methoxybenzenesulfonyl)-amino]-3-phenyl-propanamide]
4 | 12.1 nM | CCCCCCCCS(=O)(=O)N[C@H](Cc1c[nH]c2ccccc12)C(=O)NO [Example 6, N-hydroxy-2(R)-[(n-octylsulfonyl)amino]-3-(3-indolyl)-propanamide]
5 | 2.6 nM | O=C(NO)[C@@H](Cc1c[nH]c2ccccc12)NS(=O)(=O)c1ccc(Br)cc1 [Example 5, N-hydroxy-2(R)-[(4-bromobenzenesulfonyl)amino]-3-(3-indolyl)-propanamide]
6 | 82 nM | CC(C)[C@@H](NS(=O)(=O)c1ccccc1)C(=O)NO [Example 9, N-hydroxy-2(R)-[(benzenesulfonyl)amino]-3-methyl butanamide]
7 | 7.81 nM | COc1ccc(S(=O)(=O)N[C@H](Cc2c[nH]c3ccccc23)C(=O)NO)cc1 [Example 1, N-hydroxy-2(R)-[(4-methoxybenzenesulfonyl)amino]-3-(3-indolyl)-propanamide]
8 | 3.3 nM | COc1ccc(S(=O)(=O)N[C@@H](C(=O)NO)c2ccccc2)cc1 [Example 7, N-hydroxy-2(R)-[(4-methoxybenzenesulfonyl)amino]-2-phenyl acetamide]
9 | 14.2 nM | O=C(NO)[C@@H](Cc1c[nH]c2ccccc12)NS(=O)(=O)c1ccccc1 [Example 2, N-hydroxy-2(R)-[(benzenesulfonyl)amino]-3-(3-indolyl)-propanamide]
